Source: patent US20240166602A1, “SUBSTITUTED DIARYL COMPOUND AS WELL AS PREPARATION METHOD AND APPLICATION THEREOF” (SHANDONG FIRST MEDICAL UNIV & SHANDONG ACADEMY OF MEDICAL …, priority 2021, published 2024)
Like-named read-outs stand apart in the source and are kept apart here.

Tests used:
Type in all cases: cell-based
[1] = system: human colon cancer (LOVO) cells; experiment: MTT tumor cell growth inhibition, human colon cancer (LOVO); settings: 48 h culture, MTT method, read-out: IC50 value of target compound against cancer cell proliferation, LOVO
Protocol: (§1) Dissolve CHJ compound series with dimethyl sultbxide (DMSO, final concentration 0.4%), and use RPMI-1640 culture medium containing 15% fetal calf serum to prepare 1 mg/mL solution for future use. During drug administration in groups, use the culture medium to dilute it to the concentration needed.
(§2) Cell lines: human lung cancer (A549), Inman ovarian cancer (SKOV3), human melanoma (A375) and human colon cancer (LOVO) cell lines, all purchased from the Cell Bank of the Chinese Academy of Sciences, DMEM containing 15% fetal bovine serum (High Glucose) culture medium, placed in a 37° C., 5% CO2 incubator.
(§3) MTT is an oxidizing yellow dye with the chemical name of 3-(4,5-dimethyl-2-thiazolyl)-2,5-diphenyl-2-H-tetrazoliumbromide tetrazole bromide. The MMT method, also known as the MTT colorimetric method, can test the survival and growth of cells. The method is simple and easily accessible and often used to screet the substance with cytotoxic activity. The basic principle of testing, is that succinodehydrogenase can reduce exogenous MIT so that MTT is reduced to blueviolet crystal Formazan insoluble to water. The crystal deposits in cells. The succinodehydrogenase exists in the mitochondria of living cells, not in the dead cells. Therefore, the chromogenic reaction can only take place in living cells. Then, dissolve the blueviolet crystal Formazan contained in cells with dimethyl sulfoxide (DMSO), and measure its absorbancy with microplate reader so that the count of living cells is reflected indirectly. Within the scope of certain cell count, the amount of blueviolet crystal Formazan formed is positively correlated to the count of living cells.
(§4) Human lung cancer (A549), human ovarian cancer (SKOV3), human melanoma (A375) and human colon cancer (LOVO) ceilsare all adherent. Based on the growth rate of tumor cells, wash the adherent tumor cells in the logarithmic phase and digest them in 0.25% EDTA pancreatic enzyme. Adjust the cell count to 1×10^5/mL and inoculate the cells in 96-pore plate, each pore containing 100 μL. Culture the cells in the 37° C. CO2 incubator, and administer the drug 24 h later. Add pharmaceutical (CJH compound series) of different concentrations to the administration group. Set up 5 dosage groups for each pharmaceutical, respectively 100, 10, 1, 0.1, 0.01 μmol/L. Set up three complex pores for each concentration. Set up blank control, DMSO (0.8%) solvent control and cis-platinum positive control. After 48 h of culture in the 37 ° C. incubator containing 5% CO2, measure the OD value through MTT method and calculate the cell inhibition ratio.
(§5) After 48 h of culture of human lung cancer (A549), human ovarian cancer (SKOV3). human melanoma (A375) and human colon cancer (LOVO) cells, stop it and add 10 μL 0.5% MTT solution to each pore. Place it in the CO2 incubator for 4 h. Remove the liquid from each pore, respectively add 0.2 mL DMSO solution, and oscillate it adequately on the table concentrator under low frequency so that the blueviolet crystal Formazan is dissolved adequately. Place it in the microplate reader and record the OD value at the wavelength of […]. Calculate the average OD value of three parallel pores of different concentrations, and calculate the cell inhibition ratio and IC50 of each tested pharmaceutical under different concentrations based on the average.
(§6) Inhibition ratio (%)=[1-tested sample OD/negative control group OD]×100%.

[2] = system: human ovarian cancer (SKOV3) cells; experiment: MTT tumor cell growth inhibition, human ovarian cancer (SKOV3); settings: SKOV3, 48 h culture, MTT method, read-out: IC50 value of target compound against cancer cell proliferation, SKOV3
Protocol: as §1, §2, §3, §4, §5, §6

[3] = system: human lung cancer (A549) cells; experiment: MTT tumor cell growth inhibition, human lung cancer (A549); settings: A549, 48 h culture, MTT method, read-out: IC50 value of target compound against cancer cell proliferation, A549
Protocol: as §1, §2, §3, §4, §5, §6

[4] = system: human melanoma (A375) cells; experiment: MTT tumor cell growth inhibition, human melanoma (A375); settings: A375, 48 h culture, MTT method, read-out: IC50 value of target compound against cancer cell proliferation, A375
Protocol: as §1, §2, §3, §4, §5, §6

Compound	IC50 ([1]; Homo sapiens)	IC50 ([2]; Homo sapiens, SK-OV-3)	IC50 ([3]; Homo sapiens)	IC50 ([4]; Homo sapiens, A-375)	IC50 [1]	IC50 [2]	IC50 [3]	IC50 [4]
COc1cc(CN(C)CC(O)COc2cccc(NC(C)=O)c2)ccc1OCCN1CCC(C)CC1 (stereo not shown) [CHJ04058, N-(3-(2-hydroxy-3((3-methoxy-4-(2-(4-methylpiperidin-1-yl)ethoxy)benzyl)(methyl)amino)propoxy)phenyl)acetamide]	54 ± 2.14 µM	102 ± 1.48 µM	245.3 ± 2.4 µM	56.21 ± 0.55 µM				
CCN(CC)CCOc1ccc(CN(C)CC(O)COc2ccccc2C(C)C)cc1OC (stereo not shown) [CHJ04089, 1-((4-(2-(diethylamino)ethoxy)-3-methoxybenzyl)(methyl)amino)-3-(2-isopropylphenoxy)propan-2-ol]	49.5 ± 3.54 µM	42.7 ± 2.61 µM	27.8 ± 1.73 µM	15 ± 2.37 µM				
CCN(CC)CCOc1ccc(CN(C)CC(O)COc2cc(C(F)(F)F)ccc2Br)cc1OC (stereo not shown) [CHJ04090, 1-(2-bromo-5-(trifluoromethyl)phenoxy)-3-((4-(2-(diethylamino)ethoxy)-3-methoxybenzyl)(methyl)amino)propan-2-ol]	34 ± 2.59 µM	36.4 ± 2.17 µM	35 ± 2.21 µM	11.7 ± 2.12 µM				
CCN(CC)CCOc1ccc(CN(C)CC(O)COc2ccc(F)c(Br)c2)cc1OC (stereo not shown) [CHJ04092, 1-(3-bromo-4-fluorophenoxy)-3-((4-(2-(diethylamino)ethoxy)-3-methoxybenzyl)(methyl)amino)propan-2-ol]	47.9 ± 3.43 µM	34.5 ± 2.7 µM	30.2 ± 2.76 µM	11.2 ± 1.05 µM				
CCN(CC)CCOc1ccc(CN(C)CC(O)COc2c(Cl)cc(Br)cc2Cl)cc1OC (stereo not shown) [CHJ04094, 1-(4-bromo-2,6-dichlorophenoxy)-3-((4-(2-(diethylamino)ethoxy)-3-methoxybenzyl) (methyl)amino)propan-2-ol]	28.5 ± 4.42 µM	15.9 ± 2.11 µM	18.4 ± 3.17 µM	2.05 ± 1.01 µM				
COc1cc(CN(C)CC(O)COc2ccc(Br)c(C(F)(F)F)c2)ccc1OCCn1ccnc1 (stereo not shown) [CHJ04097, 1-((4-(2-(1H-imidazol-1-yl)ethoxy)-3-methoxybenzyl)(methyl)amino)-3-(4-bromo-3-(trifluoromethyl)phenoxy)propari-ol]	32.1 ± 3.39 µM	33.6 ± 2.47 µM	24.4 ± 2.78 µM	14.8 ± 2.77 µM				
COc1cc(CN(C)CC(O)COc2cc(C(F)(F)F)ccc2Br)ccc1OCCn1ccnc1 (stereo not shown) [CHJ04099, 1-((4-(2-(1H-imidazol-1yl)ethoxy)-3-methoxybenzyl)(methyl)amino)-3-(2-bromo-5-(trifluoromethyl)phenoxy)propan-2-ol]	38.2 ± 2.94 µM	37.4 ± 2.48 µM	23.1 ± 2.58 µM	16.2 ± 2.11 µM				
COc1cc(CN(C)CC(O)COc2ccc(Br)cc2)ccc1OCCn1ccnc1 (stereo not shown) [CHJ05001]	49.1 ± 2.71 µM	40.1 ± 3.02 µM	30.7 ± 3.12 µM	15.8 ± 1.73 µM				
COc1cc(CN(C)CC(O)COc2ccc(C)c(Br)c2)ccc1OCCn1ccnc1 (stereo not shown) [CHJ05003, 1-((4-(2-(1H-imidazol-1-yl)ethoxy)03-methoxybenzyl)(methyl)amino)-3-(3-bromo-4-methylphenoxy)propan-2-ol]	52.5 ± 1.22 µM	35.1 ± 1.35 µM	34 ± 2.11 µM	24.9 ± 1.93 µM				
N.N.[Cl][Pt][Cl] [cisplatin, reference compound]					2.64 ± 1.12 µM	1.91 ± 0.43 µM	4.21 ± 1.31 µM	5.91 ± 1.64 µM

The next lines start with results.

IC50 ([1]; Homo sapiens)	IC50 ([2]; Homo sapiens, SK-OV-3)	IC50 ([3]; Homo sapiens)	IC50 ([4]; Homo sapiens, A-375)	Compound	IC50 [1]	IC50 [2]	IC50 [3]	IC50 [4]
1.16 ± 0.94 µM	3.06 ± 1.1 µM	0.86 ± 0.45 µM	0.65 ± 0.14 µM	COc1cc(CN(C)CC(O)COc2cc(Cl)cc(Br)c2)ccc1OCCN1CCC(C)CC1 (stereo not shown) [CHJ04034, 1-(3-bromo-5-chlorophenoxy)-3-((3-methoxy-4-(2-(4-methylpiperidin1-yl)ethoxy)benzyl)(methyl)amino)propan-2-ol]				
3.92 ± 0.56 µM	3.26 ± 1.21 µM	10.6 ± 3.37 µM	3.23 ± 0.49 µM	COc1cc(CN(C)CC(O)COc2ccc(Cl)cc2Cl)ccc1OCCN1CCC(C)CC1 (stereo not shown) [CHJ04059, 1-(2,4-dichlorophenoxy)-3-((3-methoxy-4-(2-(4-methylpiperidin-1-yl)ethoxy)benzyl) (methyl)amino)propan-2-ol]				
3.55 ± 2.14 µM	17.1 ± 0.24 µM	21.5 ± 3.65 µM	9.24 ± 2.65 µM	COc1cc(CN(C)CC(O)COc2ccc(C)c(Br)c2)ccc1OCCN1CCCC1 (stereo not shown) [CHJ04064, 1-(3-bromo-4-methylphenoxy)-3-((3-methoxy-4-(2-(pyrrolidin-1-yl)ethoxy)benzyl) (methyl)amino)propan-2-ol]				
2.5 ± 0.65 µM	77.1 ± 4.07 µM	29.9 ± 2.45 µM	10.3 ± 1.4 µM	COc1cc(CN(C)CC(O)COc2cc(Cl)cc(Cl)c2)ccc1OCCN1CCCC1 (stereo not shown) [CHJ04066, 1-(3,5-dichlorophenoxy)-3-((3-methoxy-4-(2-(pyrrolidin-1-yl)ethoxy)benzyl)(methyl)amino)propan-2-ol]				
5.21 ± 2.31 µM	9.62 ± 4.23 µM	12.5 ± 2.44 µM	2.26 ± 0.37 µM	COc1cc(CN(C)CC(O)COc2ccc(Cl)c(Cl)c2)ccc1OCCN1CCCC1 (stereo not shown) [CHJ04072, 1-(3,4-dichlorophenoxy)-3-((3-methoxy-4-(2-(pyrrolidin-1-yl)ethoxy)benzyl)(methyl)amino)propan-2-ol]				
2.82 ± 1.05 µM	28.5 ± 5.22 µM	22.3 ± 1.98 µM	7.51 ± 2.62 µM	COc1cc(CN(C)CC(O)COc2ccccc2C(F)(F)F)ccc1OCCN1CCC(C)CC1 (stereo not shown) [CHJ04082]				
1.23 ± 0.17 µM	10.4 ± 1.43 µM	13.3 ± 2.02 µM	2.44 ± 1.03 µM	COc1cc(CN(C)CC(O)COc2ccc(Cl)cc2)ccc1OCCN1CCC(C)CC1 (stereo not shown) [CHJ04083, 1-(4-chlorophenoxy)-3((3-methoxy-4-(2-(4-methylpiperidin-1-yl)ethoxy)benzyl)(methyl)amino)propan-2-ol]				
7.54 ± 1.02 µM	96.4 ± 2.72 µM	42.7 ± 3.06 µM	16.7 ± 2.48 µM	COc1ccc(OCC(O)CN(C)Cc2ccc(OCCN3CCC(C)CC3)c(OC)c2)cc1 (stereo not shown) [CHJ04084, 1-((3-methoxy-4-(2-(4-methylpiperidin-1-yl)ethoxy)benzyl)(methyl)amino)-3-(4-methoxyphenoxy)propan-2-ol]				
1.94 ± 0.79 µM	49.2 ± 1.97 µM	28.8 ± 5.12 µM	7.32 ± 1.8 µM	COc1cc(CN(C)CC(O)COc2ccccc2Cl)ccc1OCCN1CCC(C)CC1 (stereo not shown) [CHJ04085, 1-(2-chlorophenoxy)-3-((3-methoxy-4-(2-(4-methylpiperidin-1-yl)ethoxy)benzyl) (methyl)amino)propan-2-ol]				
10.6 ± 3.2 µM	17.8 ± 3.11 µM	11.1 ± 1.33 µM	4.01 ± 3.11 µM	CCN(CC)CCOc1ccc(CN(C)CC(O)COc2ccc(Cl)c(Cl)c2)cc1OC (stereo not shown) [CHJ04091, 1-(3,4-dichlorophenoxy)-3-((4-(2-(diethylamino)ethoxy)-3-methoxybenzyl)(methyl)amino)propan-2-ol]				
14.5 ± 2.14 µM	10.2 ± 1.69 µM	20.1 ± 2.01 µM	2.6 ± 1.22 µM	CCN(CC)CCOc1ccc(CN(C)CC(O)COc2ccc(Br)c(C(F)(F)F)c2)cc1OC (stereo not shown) [CHJ04093]				
8.48 ± 0.07 µM	21.07 ± 0.18 µM	14.64 ± 0.06 µM	27.1 ± 0.66 µM	CCOc1ccccc1OCC(O)CN(C)Cc1ccc(OCCN2CCC(C)CC2)c(OC)c1 (stereo not shown) [SAMS10]				
